Experiments:
DDX3X-K118Ac = assay: DDX3X acetylation in HEK293T cells expressing CBP or p300 (immunoprecipitation and immunoblotting); type: cell-based, human; conditions: for DDX3X-K118Ac signal after treating the cells with HDAC inhibitors: HEK293T cells transiently expressing CBP, DDX3X-K118Ac-specific antibody
Description: HEK293T cells were transfected with Lipofectamine 2000 (Life Technologies) or FuGENE HD (Promega), and MEF cells were transfected with 4D-Nucleofector™ System (Lonza), following manufacturer's protocol.
Cells were washed by ice-cold PBS and lysed in Triton lysis buffer (50 mM Tris-HCl, pH8.0, 150 mM sodium chloride, 1 mM EDTA, 0.1% TritonX-100 and Complete EDTA-free protease inhibitors (Roche)) for analysis. To detect protein acetylation, 0.2 μM Trichostatin A and 5 mM nicotinamide was added to PBS for wash, and 10 μM Trichostatin A, 10 mM nicotinamide, 50 mM sodium butyrate were added to Triton lysis buffer. To detect protein phosphorylation, Pierce Protease and Phosphatase Inhibitor Mini Tablets (Thermo scientific) were added to Triton lysis buffer instead of Complete EDTA-free protease inhibitors. Five hundred μg protein lysates were incubated with the specific antibody for overnight at 4° C., and immunoprecipitated with Dynabeads ProteinG (invitrogen) for 1 h at 4° C. Samples were boiled for 10 min in SDS-PAGE sample buffer, and separated with 4-12% NuPAGE gels (invitrogen). […] For inhibition of HDACs in cells, concentration of each HDAC inhibitor was as described in {Scholz, 2015 #851}.
(§1) To investigate whether DDX3X-K118Ac is a direct target site of HDAC6, the inventors performed a biochemical assay using purified components. […] Next, they tested the acetylation status of DDX3X in cells. It has been shown that the stoichiometry of acetylation is generally low {Weinert, 2014 #452}, making it difficult to detect. The inventors therefore attempted to enhance the level of acetylation by expressing different HATs. To test which HAT(s) can act on DDX3X, expression vectors for PCAF, CBP, Tip60 or p300 were individually transfected into HEK293T cells and cellular extracts were analyzed by immunoprecipitation and immunoblotting.
Different deacetylases often redundantly target the same lysine acetylation site on a target protein. […] To test whether the DDX3X-K118 deacetylation is specific for HDAC6, the inventors transiently expressed CBP in HEK293T cells and assessed the DDX3X-K118Ac signal after treating the cells with several HDAC inhibitors.

[1] = target: T1, Danio rerio HDAC6 CD1-CD2 (a.a.40-831) (Danio rerio, UniProt F8W4B7); assay: In vitro HDAC6 deacetylation assay with DDX3X-K118 acetylated peptide; type: biochemical; conditions: 1 μM Trichostatin A, 3 hours, 37° C., HPLC UV 214 nm
T1 construct: Danio rerio HDAC6 CD1-CD2 (a.a.40-831) was expressed in Sf9 insect cells; made in house; host or cells: Sf9 insect cells
T1 sequence (F8W4B7 40-831): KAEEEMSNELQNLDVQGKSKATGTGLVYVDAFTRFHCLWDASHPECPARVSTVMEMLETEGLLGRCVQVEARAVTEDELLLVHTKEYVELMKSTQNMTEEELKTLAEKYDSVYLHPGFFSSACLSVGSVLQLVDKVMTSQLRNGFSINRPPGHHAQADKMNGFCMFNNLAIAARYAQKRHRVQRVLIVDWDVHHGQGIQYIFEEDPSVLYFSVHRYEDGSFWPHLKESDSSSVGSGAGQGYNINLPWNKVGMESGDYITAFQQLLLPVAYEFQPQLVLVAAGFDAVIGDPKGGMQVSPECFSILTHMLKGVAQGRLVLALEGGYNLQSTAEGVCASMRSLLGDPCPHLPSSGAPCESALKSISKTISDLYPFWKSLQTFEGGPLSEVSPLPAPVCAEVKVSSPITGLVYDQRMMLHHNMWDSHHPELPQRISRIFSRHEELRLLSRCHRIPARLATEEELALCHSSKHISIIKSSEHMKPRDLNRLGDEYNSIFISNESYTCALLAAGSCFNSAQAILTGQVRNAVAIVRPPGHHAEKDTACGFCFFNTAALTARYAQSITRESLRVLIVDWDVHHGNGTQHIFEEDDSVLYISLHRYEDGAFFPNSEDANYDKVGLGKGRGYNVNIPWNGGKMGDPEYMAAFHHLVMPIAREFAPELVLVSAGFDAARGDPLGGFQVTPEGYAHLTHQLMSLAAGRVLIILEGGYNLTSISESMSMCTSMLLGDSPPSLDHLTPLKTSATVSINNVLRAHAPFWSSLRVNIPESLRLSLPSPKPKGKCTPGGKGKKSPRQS
Excerpt: as §1

DDX3X-K118 acetylation = DDX3X-K118 acetylation under arsenite-induced oxidative stress (immunoblotting); type: cell-based

Compound	DDX3X-K118Ac signal after treating the cells with HDAC inhibitors (DDX3X-K118Ac)	further results
CN1CCc2c(c3ccccc3n2Cc2ccc(C(=O)NO)cc2)C1 [Tubastatin A]	increased	–
CC(/C=C/C(=O)NO)=C\[C@@H](C)C(=O)c1ccc(N(C)C)cc1 [Trichostatin A]	–	deacetylation of the DDX3X-K118Ac peptide by purified tandem HDAC6 catalytic domains [1]: inhibited
CCCCOc1ccc(CC(=O)NO)cc1 [Bufexamac]	increased	–
O=C(CCCCCCC(=O)Nc1ccc([C@H]2O[C@@H](CSc3nc(-c4ccccc4)c(-c4ccccc4)o3)C[C@@H](c3ccc(CO)cc3)O2)cc1)NO [Tubacin]	increased	DDX3X-K118 acetylation after arsenite treatment plus HDAC6 inhibitor (DDX3X-K118 acetylation; WT cells treated with arsenite and also with Tubacin): further increased; acetylation level of endogenous or overexpressed DDX3X (DDX3X-K118Ac; HEK293T cells transfected with CBP or p300 (with or without DDX3X construct), treatment of the cells with inhibitor): increased even further
NC(=O)c1cccnc1 [nicotinamide]	neither nicotinamide, a sirtuin deacetylase inhibitor, nor sodium butyrate, a class I HDAC inhibitor, altered the acetylation status	–
CCCC(=O)[O-].[Na+] [sodium butyrate]	neither nicotinamide, a sirtuin deacetylase inhibitor, nor sodium butyrate, a class I HDAC inhibitor, altered the acetylation status	–
sodium arsenite	–	DDX3X-K118 acetylation after arsenite treatment (DDX3X-K118 acetylation): increased

Reference: US20200216563A1, “HDAC6 AND PROTEIN AGGREGATION” (Friedrich Miescher Institute for Biomedical Research, priority 2017, published 2020)
